Test results reported in ChEMBL document CHEMBL3994622, “Design and synthesis of new RAF kinase-inhibiting antiproliferative quinoline derivatives. Part 2: Diarylurea derivatives” (Eur J Med Chem, 2017).

How the values were obtained:
SK-MEL-5 = experiment: Growth inhibition of human SK-MEL-5 cells assessed as cell growth at 0.005 uM incubated for 48 hrs by sulforhodamine B assay relative to control; format: functional; conditions: SK-MEL-5, 48 h, read-out: Activity
KM12 [1] = experiment: Growth inhibition of human KM12 cells assessed as cell growth at 0.5 uM incubated for 48 hrs by sulforhodamine B assay relative to control; format: functional; conditions: KM12, 48 h, read-out: Activity
SF-295 = experiment: Growth inhibition of human SF295 cells assessed as cell growth at 5 uM incubated for 48 hrs by sulforhodamine B assay relative to control; format: functional; conditions: SF-295, 48 h, read-out: Activity
TK-10 = experiment: Growth inhibition of human TK10 cells assessed as cell growth at 0.5 uM incubated for 48 hrs by sulforhodamine B assay relative to control; format: functional; conditions: TK-10, 48 h, read-out: Activity
OVCAR-5 = experiment: Growth inhibition of human OVCAR5 cells assessed as cell growth at 5 uM incubated for 48 hrs by sulforhodamine B assay relative to control; format: functional; conditions: OVCAR-5, 48 h, read-out: Activity
SNB-75 = experiment: Growth inhibition of human SNB75 cells assessed as cell growth at 0.005 uM incubated for 48 hrs by sulforhodamine B assay relative to control; format: functional; conditions: SNB-75, 48 h, read-out: Activity
OVCAR-3 [2] = experiment: Growth inhibition of human OVCAR3 cells assessed as cell growth at 0.5 uM incubated for 48 hrs by sulforhodamine B assay relative to control; format: functional; conditions: OVCAR-3, 48 h, read-out: Activity
SR = experiment: Growth inhibition of human SR cells assessed as cell growth at 50 uM incubated for 48 hrs by sulforhodamine B assay relative to control; format: functional; conditions: read-out: Activity
MCF7 = experiment: Growth inhibition of human MCF7 cells assessed as cell growth at 5 uM incubated for 48 hrs by sulforhodamine B assay relative to control; format: functional; conditions: MCF7, 48 h, read-out: Activity
OVCAR-8 = experiment: Growth inhibition of human OVCAR8 cells assessed as cell growth at 50 uM incubated for 48 hrs by sulforhodamine B assay relative to control; format: functional; conditions: OVCAR-8, 48 h, read-out: Activity
HCT-116 = experiment: Growth inhibition of human HCT116 cells assessed as cell growth at 0.5 uM incubated for 48 hrs by sulforhodamine B assay relative to control; format: functional; conditions: HCT-116, 48 h, read-out: Activity
UO-31 = experiment: Growth inhibition of human UO31 cells assessed as cell growth at 0.05 uM incubated for 48 hrs by sulforhodamine B assay relative to control; format: functional; conditions: UO-31, 48 h, read-out: Activity
ACHN [3] = experiment: Growth inhibition of human ACHN cells assessed as cell growth at 0.05 uM incubated for 48 hrs by sulforhodamine B assay relative to control; format: functional; conditions: read-out: Activity
MDA-MB-231 = experiment: Growth inhibition of human MDA-MB-231 cells assessed as cell growth at 0.5 uM incubated for 48 hrs by sulforhodamine B assay relative to control; format: functional; conditions: MDA-MB-231, 48 h, read-out: Activity
ACHN [4] = experiment: Growth inhibition of human ACHN cells assessed as cell growth at 0.5 uM incubated for 48 hrs by sulforhodamine B assay relative to control; format: functional; conditions: read-out: Activity
SF-539 = experiment: Growth inhibition of human SF539 cells assessed as cell growth at 0.005 uM incubated for 48 hrs by sulforhodamine B assay relative to control; format: functional; conditions: SF-539, 48 h, read-out: Activity
SK-MEL-2 = experiment: Growth inhibition of human SK-MEL-2 cells assessed as cell growth at 0.5 uM incubated for 48 hrs by sulforhodamine B assay relative to control; format: functional; conditions: SK-MEL-2, 48 h, read-out: Activity
SF-268 = experiment: Growth inhibition of human SF268 cells assessed as cell growth at 0.5 uM incubated for 48 hrs by sulforhodamine B assay relative to control; format: functional; conditions: SF-268, 48 h, read-out: Activity
M14 = experiment: Growth inhibition of human M14 cells assessed as cell growth at 0.5 uM incubated for 48 hrs by sulforhodamine B assay relative to control; format: functional; conditions: M14, 48 h, read-out: Activity
NCI-H460 = experiment: Growth inhibition of human NCI-H460 cells assessed as cell growth at 5 uM incubated for 48 hrs by sulforhodamine B assay relative to control; format: functional; conditions: NCI-H460, 48 h, read-out: Activity
HCC 2998 = experiment: Growth inhibition of human HCC2998 cells assessed as cell growth at 0.5 uM incubated for 48 hrs by sulforhodamine B assay relative to control; format: functional; conditions: HCC 2998, 48 h, read-out: Activity
SN12C = experiment: Growth inhibition of human SN12C cells assessed as cell growth at 0.005 uM incubated for 48 hrs by sulforhodamine B assay relative to control; format: functional; conditions: read-out: Activity
HT-29 = experiment: Growth inhibition of human HT-29 cells assessed as cell growth at 0.5 uM incubated for 48 hrs by sulforhodamine B assay relative to control; format: functional; conditions: HT-29, 48 h, read-out: Activity
IGROV-1 = experiment: Growth inhibition of human IGROV1 cells assessed as cell growth at 0.5 uM incubated for 48 hrs by sulforhodamine B assay relative to control; format: functional; conditions: IGROV-1, 48 h, read-out: Activity
KM12 [5] = experiment: Growth inhibition of human KM12 cells assessed as cell growth at 50 uM incubated for 48 hrs by sulforhodamine B assay relative to control; format: functional; conditions: KM12, 48 h, read-out: Activity
NCI-H226 = experiment: Growth inhibition of human NCI-H226 cells assessed as cell growth at 50 uM incubated for 48 hrs by sulforhodamine B assay relative to control; format: functional; conditions: NCI-H226, 48 h, read-out: Activity
OVCAR-3 [6] = experiment: Growth inhibition of human OVCAR3 cells assessed as cell growth at 50 uM incubated for 48 hrs by sulforhodamine B assay relative to control; format: functional; conditions: OVCAR-3, 48 h, read-out: Activity
EKVX [7] = experiment: Growth inhibition of human EKVX cells assessed as cell growth at 0.03 uM incubated for 48 hrs by sulforhodamine B assay relative to control; format: functional; conditions: read-out: Activity
[8] = target: Epidermal growth factor receptor (Homo sapiens) (UniProt P00533); experiment: Inhibition of human EGFR at 10 uM using poly[Glu:Tyr] (4:1) as substrate in presence of [33P]ATP by Hotspot assay relative to control
Sequence of Epidermal growth factor receptor (Homo sapiens) (P00533 whole entry): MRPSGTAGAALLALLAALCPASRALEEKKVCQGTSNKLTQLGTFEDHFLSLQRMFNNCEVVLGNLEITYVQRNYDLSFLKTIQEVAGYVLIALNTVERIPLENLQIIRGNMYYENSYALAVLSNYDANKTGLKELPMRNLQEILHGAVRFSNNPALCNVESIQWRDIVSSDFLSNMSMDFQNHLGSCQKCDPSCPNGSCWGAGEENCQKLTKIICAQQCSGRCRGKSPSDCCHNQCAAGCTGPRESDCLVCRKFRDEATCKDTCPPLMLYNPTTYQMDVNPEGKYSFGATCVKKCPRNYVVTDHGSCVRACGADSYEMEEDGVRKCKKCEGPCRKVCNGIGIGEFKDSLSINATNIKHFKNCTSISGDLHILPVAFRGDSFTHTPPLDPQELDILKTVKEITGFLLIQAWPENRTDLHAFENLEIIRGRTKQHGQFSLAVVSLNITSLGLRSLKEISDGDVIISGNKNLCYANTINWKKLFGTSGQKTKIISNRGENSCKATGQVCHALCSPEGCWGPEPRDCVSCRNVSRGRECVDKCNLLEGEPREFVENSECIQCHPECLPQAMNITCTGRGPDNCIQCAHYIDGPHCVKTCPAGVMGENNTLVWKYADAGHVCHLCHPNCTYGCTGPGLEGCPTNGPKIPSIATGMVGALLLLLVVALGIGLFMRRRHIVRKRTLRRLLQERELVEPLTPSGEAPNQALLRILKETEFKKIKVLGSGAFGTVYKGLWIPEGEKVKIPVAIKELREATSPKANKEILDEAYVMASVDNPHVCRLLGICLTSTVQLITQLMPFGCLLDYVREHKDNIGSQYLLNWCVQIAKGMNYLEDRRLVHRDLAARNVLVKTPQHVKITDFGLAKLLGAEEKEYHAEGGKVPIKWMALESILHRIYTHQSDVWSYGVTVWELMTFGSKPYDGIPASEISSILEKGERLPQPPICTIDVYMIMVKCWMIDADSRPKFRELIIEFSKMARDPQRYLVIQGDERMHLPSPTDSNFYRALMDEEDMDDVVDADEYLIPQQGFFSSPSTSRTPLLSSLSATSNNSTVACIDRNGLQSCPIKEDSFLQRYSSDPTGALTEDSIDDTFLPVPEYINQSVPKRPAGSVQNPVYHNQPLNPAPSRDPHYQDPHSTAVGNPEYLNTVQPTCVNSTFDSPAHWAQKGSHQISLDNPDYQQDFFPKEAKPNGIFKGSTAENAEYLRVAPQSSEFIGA

BT-549 = experiment: Growth inhibition of human BT549 cells assessed as cell growth at 30 uM incubated for 48 hrs by sulforhodamine B assay relative to control; format: functional; conditions: BT-549, 48 h, read-out: Activity
[9] = target: Mitogen-activated protein kinase 1 (Homo sapiens) (UniProt P28482); experiment: Inhibition of human ERK2 at 10 uM using myelin basic protein as substrate in presence of [33P]ATP by Hotspot assay relative to control
Sequence of Mitogen-activated protein kinase 1 (Homo sapiens) (P28482 whole entry): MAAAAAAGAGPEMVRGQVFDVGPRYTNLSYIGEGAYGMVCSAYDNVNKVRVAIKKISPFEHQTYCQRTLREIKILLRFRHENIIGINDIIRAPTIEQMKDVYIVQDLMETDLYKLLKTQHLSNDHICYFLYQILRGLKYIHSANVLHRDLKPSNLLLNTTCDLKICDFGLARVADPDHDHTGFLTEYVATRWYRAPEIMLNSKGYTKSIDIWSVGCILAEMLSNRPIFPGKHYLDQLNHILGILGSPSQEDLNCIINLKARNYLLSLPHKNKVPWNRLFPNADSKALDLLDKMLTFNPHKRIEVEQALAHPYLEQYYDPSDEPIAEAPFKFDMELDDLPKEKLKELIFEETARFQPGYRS

EKVX [10] = experiment: Growth inhibition of human EKVX cells assessed as cell growth at 0.3 uM incubated for 48 hrs by sulforhodamine B assay relative to control; format: functional; conditions: read-out: Activity
MDA-MB-468 = experiment: Growth inhibition of human MDA-MB-468 cells assessed as cell growth at 0.03 uM incubated for 48 hrs by sulforhodamine B assay relative to control; format: functional; conditions: MDA-MB-468, 48 h, read-out: Activity

Compound: COc1cc2cc(Oc3ccc(NC(=O)Nc4cccc(C(F)(F)F)c4)cc3)c(C)nc2cc1OC
- growth at 0.005 µM (SK-MEL-5): 96%
- growth at 0.5 µM (KM12 [1]): 88%
- growth at 5 µM (SF-295): -14%
- growth at 0.5 µM (TK-10): 108%
- growth at 5 µM (OVCAR-5): 31%
- growth at 0.005 µM (SNB-75): 79%
- growth at 0.5 µM (OVCAR-3 [2]): 105%
- growth at 50 µM (SR): -57%
- growth at 5 µM (MCF7): 3%
- growth at 50 µM (OVCAR-8): -90%
- growth at 0.5 µM (HCT-116): 88%
- growth at 0.05 µM (UO-31): 91%
- growth at 0.05 µM (ACHN [3]): 99%
- growth at 0.5 µM (MDA-MB-231): 81%
- growth at 0.5 µM (ACHN [4]): 95%
- growth at 0.005 µM (SF-539): 104%
- growth at 0.5 µM (SK-MEL-2): 108%
- growth at 0.5 µM (SF-268): 96%
- growth at 0.5 µM (M14): 90%
- growth at 5 µM (NCI-H460): 5%
- growth at 0.5 µM (HCC 2998): 109%
- growth at 0.005 µM (SN12C): 95%
- growth at 0.5 µM (HT-29): 112%
- growth at 0.5 µM (IGROV-1): 113%
- growth at 50 µM (KM12 [5]): -59%
- growth at 50 µM (NCI-H226): -67%
- growth at 50 µM (OVCAR-3 [6]): -57%

Compound: COc1cc2cc(Oc3ccc(NC(=O)Nc4ccc(Cl)c(C(F)(F)F)c4)cc3)c(C)nc2cc1OC
- growth at 0.03 µM (EKVX [7]): 97%
- inhibition [8]: -0.3%
- growth at 30 µM (BT-549): -65%
- inhibition [9]: 1.04%
- growth at 0.3 µM (EKVX [10]): 94%

Compound: Cc1nc2cc(O)c(O)cc2cc1Oc1ccc(NC(=O)Nc2ccc(Cl)c(Cl)c2)cc1
- growth at 0.03 µM (MDA-MB-468): 105%
